Data published in EP3818828A1 (priority 2019, dated 2021).
≈ marks a conversion by molar mass, not a printed value.

Columns and labels:
L.taurica = test: Field efficiency test, tomato powdery mildew; format: in vivo; details: solar greenhouse
Protocol: The formulation of emulsifiable concentrate is the same as that in Embodiment 3.
Tomatoes (Variety: Song Tian Fen Yang Yang) were planted in a solar greenhouse. 14% of 3-(3',4'-methylenedioxy phenyl)-piperidine acrylate EC was diluted at four concentrations of 1.00, 0.80, 0.667 and 0.50 mg/mL (active ingredients); the control agent, 72% cream urea·manganese zinc WP was diluted at a concentration of 1.00 mg/mL (active ingredients); additionally clear water was used as the control. The first application was started before the onset of L.taurica. The instrument for application was a WS-18D knapsack electric sprayer, which employed a cone nozzle. Each agent was formulated into the desired concentrations according to the usage amount of the control clear water. Both sides of the tomato leaves were sprayed evenly. Thereafter, applications were conducted every 7 days consecutively for 4 times. 10 days after the fourth application, the number of sick leaves at each grade of powdery mildew was investigated following the grading standard of 9 grades, to calculate the disease index and the control effect.

Fusarium graminearum = test: microbe, parasite or virus in culture; format: cell-based; details: for EC50: median inhibition concentration

With `O=C(/C=C/c1ccc2c(c1)OCO2)N1CCCCC1` [3-(3',4'-methylenedioxyphenyl)-piperidine acrylate] the “Control Effect” value (L.taurica; 0.50 mg/mL) was 81.68%, the “Control Effect” value (L.taurica; 0.667 mg/mL) was 88.19% and the “Control Effect” value (L.taurica; 0.80 mg/mL) was 90.36%. The “Control Effect” value (L.taurica; 1.00 mg/mL) was 97.85%, the “Relative Toxicity (Compared to Chlorothalonil)” value (Fusarium graminearum; EC50 of chlorothalonil / EC50 of agent) was 5.89 and the “Relative Toxicity (Compared to Procymidone)” value (Fusarium graminearum; EC50 of procymidone / EC50 of agent) was 1.80. It also gave an EC50 (Fusarium graminearum) of 80 µg/mL (≈ 309 µM) and an EC50 (Fusarium graminearum; listed as 66#) of 79.6 µg/mL (≈ 307 µM).
